Laboratory results: the supplement of paper PMC9938120

Assays:
Test in all cases: drug sensitivity score (DSS3, normalised partial AUC of % inhibition dose-response) (DSS (score)); higher = more sensitive (stronger inhibition of viability); extreme values may be limits of the assay
FMOC02_1 = patient-derived low-grade serous ovarian cancer cells; details: 72 h; library: FO5A; assay format: 2D, 384-well, CellTiter-Glo
In short: (§1)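 Early-passage (under 10) patient-derived ovarian cancer cells were dispensed onto 384-well flat clear-bottom plates pre-plated with compounds at five concentrations spanning a 10,000-fold range, then incubated 72 h at 37 °C, 5% CO2. Viability was read with CellTiter-Glo, and the data were processed in Breeze. The drug sensitivity score is a partial area under the percent-inhibition dose-response curve divided by the log of the upper asymptote, with higher values meaning greater sensitivity.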

FMOC02_2 = patient-derived low-grade serous ovarian cancer cells; details: 72 h; library: FO5A; assay format: 2D, 384-well, CellTiter-Glo
In short: as §1

FMOC02_3 = patient-derived low-grade serous ovarian cancer cells; details: 72 h; library: FO5A; assay format: 2D, 384-well, CellTiter-Glo
In short: as §1

FMOC03 = patient-derived mucinous ovarian cancer cells; details: 72 h; library: FO5A; assay format: 2D, 384-well, CellTiter-Glo
In short: as §1

FMOC04 = patient-derived high-grade serous ovarian cancer cells; details: 72 h; library: FO5A; assay format: 2D, 384-well, CellTiter-Glo
In short: as §1

FMOC06 = patient-derived mucinous ovarian cancer cells; details: 72 h; library: FO5A; assay format: 2D, 384-well, CellTiter-Glo
In short: as §1

FMOC09 = patient-derived high-grade serous ovarian cancer cells; details: 72 h; library: FO5A; assay format: 2D, 384-well, CellTiter-Glo
In short: as §1

FMOC11 = patient-derived high-grade serous ovarian cancer cells; details: 72 h; library: FO5A; assay format: 2D, 384-well, CellTiter-Glo
In short: as §1

FMOC14 = patient-derived high-grade serous ovarian cancer cells; details: 72 h; library: FO5A; assay format: 2D, 384-well, CellTiter-Glo
In short: as §1

FMOC17 = patient-derived low-grade serous ovarian cancer cells; details: 72 h; library: FO5A; assay format: 2D, 384-well, CellTiter-Glo
In short: as §1

FMOC22 = patient-derived mucinous ovarian cancer cells; details: 72 h; library: FO5A; assay format: 2D, 384-well, CellTiter-Glo
In short: as §1

FMOC24 = patient-derived high-grade serous ovarian cancer cells; details: 72 h; library: FO5A; assay format: 2D, 384-well, CellTiter-Glo
In short: as §1

FMOC25_1 = patient-derived low-grade serous ovarian cancer cells; details: 72 h; library: FO4B; assay format: 2D, 384-well, CellTiter-Glo
In short: as §1

FMOC25_2 = patient-derived low-grade serous ovarian cancer cells; details: 72 h; library: FO5A; assay format: 2D, 384-well, CellTiter-Glo
In short: as §1

FMOC27 = patient-derived low-grade serous ovarian cancer cells; details: 72 h; library: FO5A; assay format: 2D, 384-well, CellTiter-Glo
In short: as §1

FMOC28 = patient-derived low-grade serous ovarian cancer cells; details: 72 h; library: FO5A; assay format: 2D, 384-well, CellTiter-Glo
In short: as §1

| SMILES | drug sensitivity score (FMOC02_1) | drug sensitivity score (FMOC02_2) | drug sensitivity score (FMOC02_3) | drug sensitivity score (FMOC03) | drug sensitivity score (FMOC04) | drug sensitivity score (FMOC06) | drug sensitivity score (FMOC09) | drug sensitivity score (FMOC11) | drug sensitivity score (FMOC14) | drug sensitivity score (FMOC17) | drug sensitivity score (FMOC22) | drug sensitivity score (FMOC24) | drug sensitivity score (FMOC25_1) | drug sensitivity score (FMOC25_2) | drug sensitivity score (FMOC27) | drug sensitivity score (FMOC28) |
| --- | --- | --- | --- | --- | --- | --- | --- | --- | --- | --- | --- | --- | --- | --- | --- | --- |
| CC(C)N(CCCNC(=O)Nc1ccc(C(C)(C)C)cc1)C[C@H]1O[C@@H](n2cc(Br)c3c(N)ncnc32)[C@H](O)[C@@H]1O [SGC0946] | 1.2 | 2.8 | 0.9 | 0.1 | 0.95 | 1.4 | 0 | 0.6 | 0 | 2 | 0.1 | 3.95 | 0 | 2.5 | 1.8 | 3.3 |
| COc1ccc(CCc2nc3cc(-c4c(C)noc4C)ccc3n2C[C@H](C)N2CCOCC2)cc1Cl [SGC-CBP30] | 4.5 | 3.3 | 2 | 2.8 | 1.3 | 4.6 | 2.5 | 4.6 | 1 | 1.4 | 2.9 | 5.6 | 0.8 | 6.1 | 3.1 | 2.4 |
| CC[C@H](CO)Nc1nc(NCc2ccccc2)c2ncn(C(C)C)c2n1 [Seliciclib] | 4.1 | 4.3 | 3.5 | 1.5 | 0.1 | 0.1 | 0 | 0 | 1.5 | 1.4 | 0 | 1.35 | 0.9 | 2.1 | 0 | 1.2 |
| CO[C@H]1C[C@@H]2CC[C@@H](C)[C@@](O)(O2)C(=O)C(=O)N2CCCC[C@H]2C(=O)O[C@H]([C@H](C)C[C@@H]2CC[C@@H](O)[C@H](OC)C2)CC(=O)[C@H](C)/C=C(\C)[C@@H](O)[C@@H](OC)C(=O)[C@H](C)C[C@H](C)/C=C/C=C/C=C/1C [Sirolimus] | 6.3 | 7.3 | 10 | 2 | 1.1 | 2.5 | 1.4 | 2.1 | 1 | 4.7 | 4 | 6.1 | 8.9 | 6.3 | 3.1 | 3.3 |
| Cc1c(C(=O)Nc2ccc(N3C[C@@H](C)O[C@@H](C)C3)nc2)cccc1-c1ccc(OC(F)(F)F)cc1 [Sonidegib] | 2.1 | 0.1 | 1.3 | 0 | 0 | 0 | 0.1 | 0.4 | 0 | 3 | 0 | 2.45 | 0 | 0 | 0 | 2.1 |
| C=CCN(/C=C1/C(=O)O[C@H](COC)[C@@]2(C)C1=C(O)C(=O)C1=C2[C@H](OC(C)=O)C[C@]2(C)C(=O)CC[C@@H]12)CC=C [Sonolisib] | 0 | 0.3 | 0.4 | 0 | 0 | 0 | 0 | 0 | 0 | 0 | 0 | 0.25 | 0 | 0 | 0 | 0.4 |
| CNC(=O)c1cc(Oc2ccc(NC(=O)Nc3ccc(Cl)c(C(F)(F)F)c3)cc2)ccn1 [Sorafenib] | 0 | 0 | 0 | 0 | 0 | 0 | 0 | 0 | 0 | 0.5 | 0 | 0 | 0 | 0 | 0 | 0 |
| CN1CCN(c2nc(C3=C(c4c[nH]c5ccccc45)C(=O)NC3=O)c3ccccc3n2)CC1 [Sotrastaurin] | 3 | 4.3 | 9.9 | 0 | 0 | 0 | 0 | 2.1 | 0 | 3.9 | 0 | 1.85 | 0 | 0 | 0 | 0 |
| C=CC(=O)Nc1cccc(Nc2nc(Nc3ccc(OCCOC)cc3)ncc2F)c1 [Spebrutinib] | 3.1 | 2.9 | 5.7 | 0 | 0 | 0 | 1.5 | 0.9 | 0 | 2.3 | 0 | 0 | 0 | 2.9 | 2.2 | 1.6 |
| CC(C)n1cnc2c(NCCc3ccc(O)cc3)nc(-c3csc4ccccc34)nc21 [StemRegenin 1] | 4.2 | 6 | 4.7 | 4.8 | 1.95 | 4.5 | 0.3 | 1 | 0.6 | 6.8 | 2.7 | 6.15 | 1.6 | 6.1 | 6.9 | 2.9 |
| CCN(CC)CCNC(=O)c1c(C)[nH]c(/C=C2\C(=O)Nc3ccc(F)cc32)c1C [Sunitinib] | 2.3 | 0.9 | 0.6 | 0 | 0 | 0 | 0 | 0 | 0 | 0.1 | 0 | 0 | 0 | 0.5 | 0 | 0 |
| CC(C)(O)CC(=O)NCCn1ccc2ncnc(Nc3ccc(Oc4cccc(C(F)(F)F)c4)c(Cl)c3)c21 [TAK-285] | 6.2 | 8.6 | 5.3 | 5.1 | 0 | 1.3 | 3.7 | 2.7 | 1 | 4.5 | 0 | 0.9 | 5 | 4.8 | 4.3 | 2.4 |
| Cc1cccc(-c2[nH]c(CNc3ccccc3F)nc2-c2ccc3ncnn3c2)n1 [TEW-7197] | 0 | 1.8 | 0.1 | 0 | 0 | 3.9 | 0 | 0.4 | 0 | 0 | 0 | 0.85 | 0 | 0 | 0.2 | 0 |
| Nc1nc(N)c2nc(-c3cccc(O)c3)c(-c3cccc(O)c3)nc2n1 [TG100-115] | 0 | 0 | 1.4 | 0.1 | 0 | 0.4 | 0.3 | 0.4 | 0.7 | 1.1 | 0 | 0.1 | 0 | 0.7 | 0 | 0 |
| Cc1cc(C(C)Nc2ccccc2)c2nc(N3CCOCC3)cc(=O)n2c1 (configuration not stated) [TGX-221] | 2 | 3.3 | 0.8 | 1 | 0.35 | 1.1 | 0 | 0.3 | 0 | 2.4 | 0 | 0.75 | 1.7 | 2.6 | 2 | 0 |
| Nc1nc(NC2CC2)cc(-c2cccc(Cl)c2Cl)n1 [TH588] | 3.4 | 5.2 | 5.4 | 0.4 | 1.15 | 0 | 1.2 | 2.2 | 0.2 | 3 | 2.3 | 0.2 | 2.1 | 2.2 | 2.3 | 5.7 |
| Clc1ccccc1C(c1ccccc1)(c1ccccc1)n1cccn1 [TRAM-34] | 0 | 0 | 0 | 0 | 0 | 0 | 0 | 0 | 0 | 0 | 0 | 0 | 0 | 0 | 0 | 1.5 |
| CC(=O)Nc1ccc(C(=O)Nc2ccccc2N)cc1 [Tacedinaline] | 0.7 | 1.3 | 2 | 0 | 0 | 3.7 | 0 | 1 | 0.6 | 1.1 | 0 | 2.05 | 0 | 0 | 0 | 1.7 |
| C=CC[C@@H]1/C=C(\C)C[C@H](C)C[C@H](OC)[C@H]2O[C@@](O)(C(=O)C(=O)N3CCCC[C@H]3C(=O)O[C@H](/C(C)=C/[C@@H]3CC[C@@H](O)[C@H](OC)C3)[C@H](C)[C@@H](O)CC1=O)[C@H](C)C[C@@H]2OC [Tacrolimus] | 0.4 | 1.9 | 1.9 | 0 | 0 | 0 | 0 | 1.4 | 1.4 | 0.9 | 0.1 | 5 | 0 | 0 | 1.7 | 0.8 |
| Cn1ncnc1[C@H]1c2n[nH]c(=O)c3cc(F)cc(c23)N[C@@H]1c1ccc(F)cc1 [Talazoparib] | 7 | 2.3 | 5.7 | 0.1 | 0.25 | 2.2 | 0.9 | 1.4 | 0.7 | 2.7 | 3.5 | 4.1 | 4.8 | 5.7 | 5.5 | 0.7 |
| C[C@@H]1CN(Cc2ccc(F)cc2)[C@@H](C)CN1C(=O)c1cc2c(C(=O)C(=O)N(C)C)cn(C)c2cc1Cl [Talmapimod] | 0 | 0 | 0 | 0 | 0 | 0 | 0 | 0.2 | 0 | 0 | 0 | 0 | 0 | 0 | 0 | 1.2 |
| CC/C(=C(\c1ccccc1)c1ccc(OCCN(C)C)cc1)c1ccccc1 [Tamoxifen] | 6.5 | 3.8 | 4.8 | 4.3 | 3.75 | 5.2 | 1.6 | 3.9 | 4 | 3 | 3.2 | 7.35 | 2.3 | 2.4 | 3.1 | 2.6 |
